In US20240360165A1, “INHIBITORS OF CYCLIN DEPENDENT KINASE 7 (CDK7)” (Syros Pharmaceuticals, Inc., priority 2016, published 2024):
Like-named read-outs stand apart in the source and are kept apart here.

Key:
CDK9/Cyclin T1 complex = CDK9/Cyclin T1 complex (Homo sapiens, UniProt P50750); assay: CDK9 inhibition assay (Caliper/LabChip EZ Reader kinase assay); format: biochemical
Protocol: (§1) Compounds of the invention were assayed for inhibition of CDK7, CDK9, CDK12, and CDK2 activity at Biortus Biosciences (Jiangyin, Jiangsu Province, P.R. of China) using kinase assays for each CDK developed with a Caliper/LabChip EZ Reader (Perkin Elmer, Waltham, MA).
(§2) Furthermore, the CDK9 inhibition assay used CDK9/Cyclin T1 complex (8 nM) and “5-FAM-CDK9tide” peptide substrate (2 μM, synthesized fluorophore-labeled peptide with the following sequence: 5-FAM-GSRTPMY-NH2 where 5-FAM is defined above and NH2 signifies a C-terminal amide) with 10 mM MgCl2 in the buffer composition listed above. […] Additionally, the CDK2 inhibition assay used CDK2/Cyclin E1 complex (0.5 nM) and “5-FAM-CDK7tide” ([…]) as defined above, with 2 mM MgCl2 in the buffer composition listed above.

[1] = target: CDK7/Cyclin H/MAT1 complex (Homo sapiens, UniProt P50613); assay: CDK7 inhibition assay (Caliper/LabChip EZ Reader kinase assay); format: biochemical
Protocol: as §1, §2

A673 cells = assay: Inhibition of proliferation of A673 cells (CyQUANT, 72 hour); format: cell-based, human
Protocol: A673 cells are a cell line derived from human […] Ewing's sarcoma. Representative compounds of the invention were tested at different concentrations (from […]; 0.5 log serial dilutions) for their ability to inhibit the proliferation of A673 cells. Known CDK inhibitors dinaciclib or N-((1S,3R)-3-((5-chloro-4-(1H-indol-3-yl)pyrimidin-2-yl)amino)cyclohexyl)-5-((E)-4-(dimethylamino)but-2-enamido)picolinamide and triptolide were used as positive controls. Cells were grown in Dulbecco's Modified Eagle's Medium, +10% FBS+1 mM Sodium Pyruvate. The cells were cultured at 37° C. in a humidified chamber in the presence of 5% CO2. Proliferation assays were conducted over a 72 hour time period. CyQUANT® (Life Technologies, Chicago, IL USA) was used to assess the anti-proliferative effects of the compounds following manufacturer's directions and utilizing the reagents supplied with the CyQUANT® kit.

CDK2/Cyclin E1 complex = CDK2/Cyclin E1 complex (Homo sapiens, UniProt P24941); assay: CDK2 inhibition assay (Caliper/LabChip EZ Reader kinase assay); format: biochemical
Protocol: as §1, §2

[2] = target: T1, CDK12 (aa686-1082)/Cyclin K complex (Homo sapiens, UniProt Q9NYV4); assay: CDK12 inhibition assay (Caliper/LabChip EZ Reader kinase assay); format: biochemical; conditions: Table 1; CDK12 (aa686-1082)/Cyclin K 50 nM, ATP 2 mM, 3 hr at 27° C.
T1 construct: CDK12 (aa686-1082)/Cyclin K complex
Protocol: as §1, §2

[3] = Table 3, comparison with structural analogs
[4] = Homo sapiens, A673, 72 h, Table 3, comparison with structural analogs, 72 hour proliferation, read-out: A673 Cells
[5] = Table 1, CDK9/Cyclin T1 8 nM, ATP 2 mM, 15 min at 27° C.
[6] = Table 1, CDK7/Cyclin H/MAT1 6 nM, ATP 2 mM, 35 min at 27° C.
[7] = Homo sapiens, A673, 72 h, A673 cells, 72 hour, CyQUANT, read-out: Inhibition of Proliferation of A673 Cells (calculated IC50)
[8] = Table 1, CDK2/Cyclin E1 0.5 nM, ATP 2 mM, 35 min at 27° C.

T1 sequence (Q9NYV4 686-1082, species assumed): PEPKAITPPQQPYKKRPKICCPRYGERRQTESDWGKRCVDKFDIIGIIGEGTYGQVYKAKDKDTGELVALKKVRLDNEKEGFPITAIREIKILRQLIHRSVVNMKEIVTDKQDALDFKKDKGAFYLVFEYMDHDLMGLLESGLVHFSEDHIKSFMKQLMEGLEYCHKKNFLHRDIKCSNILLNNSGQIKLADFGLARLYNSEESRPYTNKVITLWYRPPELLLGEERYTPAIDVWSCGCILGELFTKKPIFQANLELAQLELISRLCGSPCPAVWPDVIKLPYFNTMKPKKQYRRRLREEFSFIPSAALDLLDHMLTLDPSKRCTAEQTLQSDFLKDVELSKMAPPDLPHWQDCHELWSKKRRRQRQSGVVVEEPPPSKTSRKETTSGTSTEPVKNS
T1 sequence (O75909 whole entry partner, species assumed, the tested form may be a part): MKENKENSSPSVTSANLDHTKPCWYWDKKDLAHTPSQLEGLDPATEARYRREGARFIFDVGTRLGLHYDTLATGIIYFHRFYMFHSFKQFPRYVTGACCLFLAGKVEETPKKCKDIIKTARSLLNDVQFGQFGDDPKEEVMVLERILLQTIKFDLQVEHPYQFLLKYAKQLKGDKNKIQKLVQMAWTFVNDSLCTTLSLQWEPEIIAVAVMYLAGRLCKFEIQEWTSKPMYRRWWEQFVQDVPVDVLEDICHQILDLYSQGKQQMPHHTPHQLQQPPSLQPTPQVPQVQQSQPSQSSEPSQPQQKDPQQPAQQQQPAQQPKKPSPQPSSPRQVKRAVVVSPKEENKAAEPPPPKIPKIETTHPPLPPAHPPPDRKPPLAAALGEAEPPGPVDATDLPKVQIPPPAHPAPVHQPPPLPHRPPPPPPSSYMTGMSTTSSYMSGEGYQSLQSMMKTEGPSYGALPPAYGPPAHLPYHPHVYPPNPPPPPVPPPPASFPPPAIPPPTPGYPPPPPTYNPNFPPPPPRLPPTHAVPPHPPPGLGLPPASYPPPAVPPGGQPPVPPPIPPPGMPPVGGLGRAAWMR
Sequence of CDK9/Cyclin T1 complex (P50750 whole entry, species assumed): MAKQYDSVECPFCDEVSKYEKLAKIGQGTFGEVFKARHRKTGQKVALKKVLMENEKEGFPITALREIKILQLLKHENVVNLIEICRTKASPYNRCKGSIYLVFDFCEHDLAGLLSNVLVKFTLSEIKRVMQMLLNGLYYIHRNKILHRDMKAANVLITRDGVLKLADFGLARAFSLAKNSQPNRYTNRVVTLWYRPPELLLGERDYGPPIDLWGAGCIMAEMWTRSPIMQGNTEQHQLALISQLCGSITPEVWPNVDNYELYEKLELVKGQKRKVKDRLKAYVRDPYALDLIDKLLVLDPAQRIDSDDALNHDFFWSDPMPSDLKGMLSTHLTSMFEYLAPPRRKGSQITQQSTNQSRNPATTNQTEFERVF
Sequence of CDK9/Cyclin T1 complex (O60563 whole entry partner, species assumed): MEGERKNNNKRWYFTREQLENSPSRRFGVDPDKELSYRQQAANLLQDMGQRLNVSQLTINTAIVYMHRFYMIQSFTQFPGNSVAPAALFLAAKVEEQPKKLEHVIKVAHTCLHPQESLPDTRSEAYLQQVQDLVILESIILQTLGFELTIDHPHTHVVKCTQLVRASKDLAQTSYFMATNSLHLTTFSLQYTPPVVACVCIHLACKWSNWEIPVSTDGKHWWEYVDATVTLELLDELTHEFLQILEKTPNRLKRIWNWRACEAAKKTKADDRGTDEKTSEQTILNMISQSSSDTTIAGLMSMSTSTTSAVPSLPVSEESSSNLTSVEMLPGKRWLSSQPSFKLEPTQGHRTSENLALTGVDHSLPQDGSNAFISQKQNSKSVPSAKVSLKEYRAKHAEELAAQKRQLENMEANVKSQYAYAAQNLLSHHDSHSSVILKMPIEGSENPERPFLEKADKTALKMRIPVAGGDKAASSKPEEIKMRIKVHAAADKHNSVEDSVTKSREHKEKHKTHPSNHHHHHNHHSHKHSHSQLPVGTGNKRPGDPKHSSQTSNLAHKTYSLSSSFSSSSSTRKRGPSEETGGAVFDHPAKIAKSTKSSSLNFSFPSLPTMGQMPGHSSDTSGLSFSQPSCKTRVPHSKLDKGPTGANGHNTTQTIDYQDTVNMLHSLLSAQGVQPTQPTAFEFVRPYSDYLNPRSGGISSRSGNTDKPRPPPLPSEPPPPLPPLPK
Sequence of CDK7/Cyclin H/MAT1 complex (P50613 whole entry, species assumed): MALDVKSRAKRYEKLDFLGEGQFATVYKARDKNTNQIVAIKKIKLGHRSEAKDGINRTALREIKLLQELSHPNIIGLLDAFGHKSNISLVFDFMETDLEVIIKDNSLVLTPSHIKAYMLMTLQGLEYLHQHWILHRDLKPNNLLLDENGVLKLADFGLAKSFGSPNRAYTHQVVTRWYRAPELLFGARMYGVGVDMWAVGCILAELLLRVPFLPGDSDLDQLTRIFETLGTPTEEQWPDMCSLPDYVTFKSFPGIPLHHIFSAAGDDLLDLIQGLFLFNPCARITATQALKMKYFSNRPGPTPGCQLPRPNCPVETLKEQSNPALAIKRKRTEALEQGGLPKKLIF
Sequence of CDK7/Cyclin H/MAT1 complex (P51946 whole entry partner, species assumed): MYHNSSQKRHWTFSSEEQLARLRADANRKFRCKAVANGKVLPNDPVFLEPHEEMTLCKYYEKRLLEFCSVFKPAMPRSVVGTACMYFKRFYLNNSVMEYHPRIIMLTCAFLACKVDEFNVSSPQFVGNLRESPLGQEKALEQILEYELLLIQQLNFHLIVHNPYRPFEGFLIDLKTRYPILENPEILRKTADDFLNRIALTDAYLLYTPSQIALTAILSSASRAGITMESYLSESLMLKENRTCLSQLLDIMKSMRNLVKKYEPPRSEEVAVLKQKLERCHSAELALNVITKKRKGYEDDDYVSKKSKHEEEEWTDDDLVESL
Sequence of CDK7/Cyclin H/MAT1 complex (P51948 whole entry partner, species assumed): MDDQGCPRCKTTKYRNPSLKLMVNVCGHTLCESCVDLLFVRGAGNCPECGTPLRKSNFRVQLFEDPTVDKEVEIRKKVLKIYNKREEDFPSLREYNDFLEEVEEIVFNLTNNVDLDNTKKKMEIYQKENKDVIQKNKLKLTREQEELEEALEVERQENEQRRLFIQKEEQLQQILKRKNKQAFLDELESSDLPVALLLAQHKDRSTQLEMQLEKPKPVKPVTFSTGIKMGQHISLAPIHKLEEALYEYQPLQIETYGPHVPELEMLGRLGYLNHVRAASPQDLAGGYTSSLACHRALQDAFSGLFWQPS

Structure (SMILES) | IC50 (CDK9/Cyclin T1 complex; [3]) [µM] | IC50 [1, 3] [nM] | IC50 (A673 cells; [4]) [nM] | IC50 (CDK2/Cyclin E1 complex; [3]) [µM] | IC50 (CDK9/Cyclin T1 complex; [5]) [µM] | IC50 [2] [µM] | IC50 [1, 6] [nM] | IC50 (A673 cells; [7]) [nM] | IC50 (CDK2/Cyclin E1 complex; [8]) [µM] | IC50 (A673 cells; A673 cells, 72 hour, CyQUANT, read-out: Inhibition of Proliferation of A673 Cells (calculated IC50)) [nM]
FC(F)(F)c1cnc(N[C@H]2CCCNC2)nc1-c1c[nH]c2ccccc12 | 0.02 to 0.2 | < 20 | < 20 | 0.2 to 5 | – | – | – | – | – | –
CC(O)c1cnc(N[C@H]2CCCNC2)nc1-c1c[nH]c2ccccc12 (mixture of isomers) [Compound 234] | – | – | – | – | > 5 | > 5 | 200 to 5000 | < 20 | > 5 | –
CCCCCC1CC[C@H](Nc2ncc(C(F)(F)F)c(-c3c[nH]c4ccccc34)n2)CN1 (mixture of isomers) [Compound 241] | – | – | – | – | 0.2 to 5 | 0.2 to 5 | 20 to 200 | 20 to 200 | 0.2 to 5 | –
O=C(C1CCC(Nc2ncc(C(F)(F)F)c(-c3c[nH]c4ccccc34)n2)CN1)N1CCC(O)C1 (mixture of isomers) [Compound 244] | – | – | – | – | > 5 | 0.2 to 5 | 20 to 200 | 200 to 5000 | 0.2 to 5 | –
CC(C)C1CC[C@H](Nc2ncc(C(F)(F)F)c(-c3c[nH]c4ccccc34)n2)CN1 (mixture of isomers) [Compound 257] | – | – | – | – | > 5 | > 5 | 20 to 200 | 200 to 5000 | > 5 | –
FC(F)(F)c1cnc(N[C@@H]2CNC[C@H](c3nnc4ccccn34)C2)nc1-c1c[nH]c2ccccc12 (relative stereo) [Compound 266] | – | – | – | – | 0.2 to 5 | 0.2 to 5 | 20 to 200 | – | 0.2 to 5 | 20 to 200
CC1(O)CCC(c2cccc3c(-c4nc(N[C@H]5CCCNC5)ncc4C(F)(F)F)c[nH]c23)CC1 (single isomer, unassigned) [Compound 192] | – | – | – | – | 0.2 to 5 | 0.2 to 5 | 20 to 200 | – | 0.2 to 5 | –
CC1(O)CCC(c2cccc3c(-c4nc(N[C@H]5CCCNC5)ncc4C(F)(F)F)c[nH]c23)CC1 (single isomer, unassigned) [Compound 193] | – | – | – | – | 0.2 to 5 | 0.2 to 5 | 20 to 200 | – | 0.2 to 5 | –
CC1(C)CCNC[C@@H]1Nc1ncc(C(F)(F)F)c(-c2c[nH]c3ccccc23)n1 (single isomer, unassigned) [Compound 209] | – | – | – | – | > 5 | > 5 | 200 to 5000 | 20 to 200 | > 5 | –
CC1(C)CCNC[C@H]1Nc1ncc(C(F)(F)F)c(-c2c[nH]c3ccccc23)n1 (single isomer, unassigned) [Compound 210] | – | – | – | – | > 5 | > 5 | 200 to 5000 | 200 to 5000 | > 5 | –
FC(F)(F)c1cnc(N[C@H]2CCCNC2)nc1-c1c[nH]c2c(-c3ccncc3)cccc12 [Compound 162] | – | – | – | – | 0.2 to 5 | 0.2 to 5 | 20 to 200 | < 20 | – | –
FC(F)(F)c1cnc(N[C@H]2CCCNC2)nc1-c1c[nH]c2c(Br)cccc12 [Compound 163] | – | – | – | – | 0.2 to 5 | 0.2 to 5 | 20 to 200 | 20 to 200 | – | –
Cn1cc(-c2cccc3c(-c4nc(N[C@H]5CCCNC5)ncc4C(F)(F)F)c[nH]c23)cn1 [Compound 164] | – | – | – | – | 0.2 to 5 | 0.2 to 5 | 20 to 200 | < 20 | – | –
FC(F)(F)c1cnc(N[C@H]2CCCNC2)nc1-c1c[nH]c2cc(N3CCCC3)ccc12 [Compound 213, N-[(3S)-3-piperidyl]-4-(6-pyrrolidin-1-yl-1H-indol-3-yl)-5-(trifluoromethyl) pyrimidin-2-amine] | – | – | – | – | > 5 | – | – | 20 to 200 | > 5 | –
C[C@]1(O)CCN(C(=O)c2ccc3c(-c4nc(N[C@H]5CCCNC5)ncc4C(F)(F)F)c[nH]c3c2)C1 [Compound 220, [(3S)-3-hydroxy-3-methyl-pyrrolidin-1-yl]-[3-[2-[[(3S)-3-piperidyl]amino]-5-(trifluoromethyl)pyrimidin-4-yl]-1Hindol-6-yl]methanone] | – | – | – | – | > 5 | 0.2 to 5 | < 20 | – | > 5 | –
FC(F)(F)c1cnc(N[C@H]2CCC3(CCCCC3)NC2)nc1-c1c[nH]c2ccccc12 [Compound 240] | – | – | – | – | 0.2 to 5 | 0.2 to 5 | 20 to 200 | – | 0.2 to 5 | –
FC(F)(F)c1cnc(N[C@H]2CCCNC2)nc1-c1c[nH]c2cc(-n3ccnc3)ccc12 [Compound 248, 4-(6-imidazol-1-yl-1H-indol-3-yl)-N-[(3S)-3-piperidyl]-5-(trifluoromethyl) pyrimidin-2-amine] | – | – | – | – | 0.2 to 5 | 0.2 to 5 | < 20 | – | 0.2 to 5 | –
CCC(=O)N[C@H]1CNC[C@@H](Nc2ncc(C(F)(F)F)c(-c3c[nH]c4c(S(C)(=O)=O)cccc34)n2)C1 [Compound 254, N-[(3R,5S)-5-[[4-(7-methylsulfonyl-1H-indol-3-yl)-5-(trifluoromethyl)pyrimidin-2-yl]amino]-3-piperidyl]propanamide] | – | – | – | – | > 5 | > 5 | 200 to 5000 | – | > 5 | –
CCc1cnc(N[C@H]2CCCNC2)nc1-c1c[nH]c2ncc(F)cc12 [Compound 270, (S)-5-ethyl-4-(5-fluoro-1H-pyrrolo[2,3-b]pyridin-3-yl)-N-(piperidin-3-yl)pyrimidin-2-amine] | – | – | – | – | 0.2 to 5 | 0.2 to 5 | < 20 | – | 0.2 to 5 | –
CCc1cnc(N[C@H]2CCCNC2)nc1-c1c[nH]c2c(S(=O)(=O)O)cccc12 [Compound 362, 3-[5-ethyl-2-[[(3S)-3-piperidyl]amino]pyrimidin-4-yl]-1H-indole-7-sulfonic acid] | – | – | – | – | > 5 | > 5 | 20 to 200 | – | > 5 | –
CCc1cnc(N[C@H]2CCCNC2)nc1-c1c[nH]c2c(S(=O)O)cccc12 [Compound 363, 3-[5-ethyl-2-[[(3S)-3-piperidyl]amino]pyrimidin-4-yl]-1H-indole-7-sulfinic acid] | – | – | – | – | > 5 | > 5 | 20 to 200 | – | > 5 | –
FC(F)(F)c1cnc(N[C@H]2CCCNC2)nc1-c1n[nH]c2ccccc12 [drawing 562] | 0.2 to 5 | < 20 | < 20 | 0.2 to 5 | – | – | – | – | – | –
C[C@]1(N)CC[C@@H](Nc2ncc(C(F)(F)F)c(-c3c[nH]c4ccccc34)n2)CC1 [reference compound] | > 5 | 200 to 5000 | 20 to 200 | 0.2 to 5 | – | – | – | – | – | –
C[C@]1(N)CC[C@@H](Nc2ncc(C(F)(F)F)c(-c3n[nH]c4ccccc34)n2)CC1 [reference compound] | 0.2 to 5 | 200 to 5000 | 20 to 200 | 0.2 to 5 | – | – | – | – | – | –
